Where “and” joins values, the source holds several entries; their conditions need not be identical. Equal values may be shown once.
Key:
[1] = Aqueous dispersibility; assay type: physicochemical; settings: sterile-filtered deionized water
From the text: In some embodiments, highly water-dispersible C40 carotenoid derivatives may include natural source RRR-lutein (β,ε-carotene-3,3′-diol) derivatives. Derivatives may be synthesized by esterification with inorganic phosphate and succinic acid, respectively, and subsequently converted to the sodium salts. Deep orange, evenly colored aqueous suspensions were obtained after addition of these derivatives to USP-purified water. […] Aqueous suspensions may be obtained without the addition of heat, detergents, co-solvents, or other additives.
Disodium disuccinate astaxanthin (DDA; see FIG. 1B) was synthesized from commercially available crystalline astaxanthin (Buckton Scott, India) as previously described in Frey, et al. (“The efficient synthesis of disodium disuccinate astaxanthin (Cardax).” Org Process Res Dev 8: 796-801, 2004.). The final product purity was 97% (as area under the curve) by HPLC analysis. DDA was dissolved directly in sterile-filtered deionized water. The maximum aqueous dispersibility of DDA is approximately 10 mM, or 8.64 mg/ml. Vehicle consisted of isotonic sterile 0.9% NaCl solution.

[2] = Hemodynamic variables during canine thrombosis protocol; assay type: in vivo, beagle dogs
[3] = Tongue bleeding time; assay type: in vivo, beagle dogs; settings: DDA 10, 30 or 50 mg/kg followed by rt-PA
Procedure: Tongue bleeding time (BT) was determined with the use of a SurgiCut™ (International Technidyne Corp, Edison, N.J.) device that makes a uniform incision 5 mm long and 1 mm deep on the upper surface of the tongue. The tongue lesion was blotted with filter paper every 20 sec until the transfer of blood to the filter paper was no longer apparent. The interval, from the time of the tongue incision until the time that blood was no longer transferred to the filter paper, was recorded as the tongue bleeding time.

[4] = test system: left carotid artery (LCA) thrombosis; test: Canine thrombosis model: left carotid artery reocclusion following rt-PA fibrinolytic therapy; assay type: in vivo, beagle dogs; settings: for Incidence of Re-occlusion: 0.9% NaCl group 5/7; for Platelet Count (Post rt-PA) / Time to thrombolysis: mean±SEM; for reduction in thrombus weights compared to 0.9% NaCl solution: end of protocol
Procedure: The experimental model used is a modification of that described by Hong, et al., (Thromb Res 117: 333-342, 2006), Rebello, et al., (Arterioscler Thromb Vasc Biol 18: 954-960, 1998), and Rote, et al. (Cardiovasc Res 27: 500-507, 1993). Healthy male or female purpose-bred beagle dogs (9-13 kg) were anesthetized with sodium pentobarbital (30 mg/kg, i.v.), intubated and ventilated with room air at a tidal volume of 30 ml/kg and a rate of 12 breaths per minute. The left carotid artery (LCA) was exposed by blunt dissection using care not to injure the vessel. An external adjustable stainless steel constrictor was shaped to fit each vessel and adjusted with a nylon screw (2 mm in diameter) to reduce the pulsatile flow pattern by 50% without altering the mean carotid artery blood flow rate. Vascular injury was accomplished with the application of a low anodal current to the intimal surface of the vessel via an intravascular electrode composed of a Teflon® insulated, silver-coated, copper wire. The intravascular electrode was connected to the positive pole (anode) of a dual-channel square wave generator (Grass S88 stimulator) and a Grass Constant Current Unit; model CCUIA (Grass Instrument Division, Astro-Med, Inc. West Warwick, R.I.). The cathode was attached at a remote subcutaneous site. The current (300 μA) applied to the intimal surface of the vessel was monitored continuously. The intravascular electrode and mechanical constrictor were upstream with respect to the flow probe. Blood flow in the carotid artery was quantified using a graded patency scoring system of 0-3 as described previously (16), in which a score of 0 represents no flow (total occlusion), 1-2 represents varying degrees of reduced and cyclic patterns of flow and 3 represents non-oscillatory or uninterrupted blood flow.
FIG. 8 illustrates the experimental protocol. Twenty-eight dogs were randomized between four treatment groups receiving either DDA (10, 30 or 50 mg/kg i.v. n=7 per group) or 0.9% NaCl (n=7). Experimental thrombosis of the left carotid artery (LCA) was induced to achieve total occlusion of blood flow. Thirty minutes later, the animals received an intravenous infusion of DDA or an equivalent volume of 0.9% NaCl solution for thirty minutes (flow rate depended on dose of DDA). The drug treatment was followed by intra-carotid administration of rtPA (0.54 μg/kg bolus+3.26 μg/kg/h infusion) delivered immediately proximal to the occlusive thrombus. The infusion of rtPA was discontinued 10 min after establishing 20% of the original flow. The end-point determinations consisted of: (1) time to thrombolysis, (2) incidence of LCA reocclusion (secondary thrombosis), (3) vessel patency scores assessed by dynamic flow recordings, and (4) thrombus weight.
The data are expressed as mean±SEM and were analyzed by one-way analysis of variance for group comparisons followed by a Dunnett's post hoc t-test to determine the level of significance. The incidence of carotid artery reocclusion was compared between the groups by chi-square test. The change over time in the vessel blood flow patency score was compared between two groups by two-way analysis of variance followed by Bonferroni post-tests to determine the level of significance. Values are considered statistically different at p<0.05.

[5] = DDA 10 mg/kg i.v. followed by rt-PA
[6] = DDA 30 mg/kg i.v. followed by rt-PA
[7] = DDA 50 mg/kg i.v. followed by rt-PA

For `CC1=C(/C=C/C(C)=C/C=C/C(C)=C/C=C/C=C(C)/C=C/C=C(C)/C=C/C2=C(C)C(=O)C(OC(=O)CCC(=O)O)CC2(C)C)C(C)(C)CC(OC(=O)CCC(=O)O)C1=O` (stereo not shown) [DDA, Disodium disuccinate astaxanthin], which maximum aqueous dispersibility [1] is on record?
The maximum aqueous dispersibility was “approximately 10 mM and ~8.64 mg/ml”.

What about the “time for blood pressure to return to original values” ([2]; DDA 50 mg/kg) of the same compound?
The value was no more than 30 min.

What about the “transient decrease in arterial blood pressure” value ([2]; DDA 50 mg/kg, seen in 5 dogs) of the same compound?
Its value is less than 15%.

What about the “mean arterial blood pressure and heart rate throughout the protocol” value ([2]; all groups (DDA 10, 30, 50 mg/kg)) of the same compound?
The value was “did not differ significantly”.

And the “tongue template bleeding time, baseline vs after drug treatment” value [3]?
Its value is “similar”.

What about the “Incidence of Re-occlusion” value [4, 5] of the same compound?
Its value is 6/7.

What about the “Platelet Count (Post rt-PA)” value [4, 5] of the same compound?
The value was 352 ± 37.

What about the Time to thrombolysis [4, 5] of the same compound?
The Time to thrombolysis was 20.3 ± 6.7 min.

And the “arterial patency score (0-3)” value ([4]; DDA 10 mg/kg, 0-30 min after rt-PA)?
Its value is 1.4 ± 0.2.

What about the “arterial patency score (0-3)” value ([4]; DDA 10 mg/kg, 30-60 min after rt-PA) of the same compound?
Its value is 1.3 ± 0.4.

And the “arterial patency score (0-3)” value ([4]; DDA 10 mg/kg, 60-90 min after rt-PA)?
The value was 1.1 ± 0.3.

And the “arterial patency score (0-3)” value ([4]; DDA 10 mg/kg, 90-120 min after rt-PA)?
Its value is 1.1 ± 0.4.

What about the “arterial patency score (0-3)” value ([4]; DDA 10 mg/kg, 120-150 min after rt-PA) of the same compound?
The value was 0.4 ± 0.4.

What about the “arterial patency score (0-3)” value ([4]; DDA 10 mg/kg, 150-180 min after rt-PA) of the same compound?
The value was 0.4 ± 0.4.

What about the “Incidence of Re-occlusion” value [4, 6] of the same compound?
Its value is 3/7.

And the “Platelet Count (Post rt-PA)” value [4, 6]?
The value was 316 ± 32.

And the Time to thrombolysis [4, 6]?
Its Time to thrombolysis is 20.6 ± 7.9 min.

And the “reduction in thrombus weights compared to 0.9% NaCl solution” value ([4]; DDA 30 mg/kg i.v.)?
Its value is 43±4%.

And the “arterial patency score (0-3)” value ([4]; DDA 30 mg/kg, 0-30 min after rt-PA)?
The value was 1.3 ± 0.2.

What about the “arterial patency score (0-3)” value ([4]; DDA 30 mg/kg, 30-60 min after rt-PA) of the same compound?
Its value is 1.3 ± 0.4.

And the “arterial patency score (0-3)” value ([4]; DDA 30 mg/kg, 60-90 min after rt-PA)?
The value was 1.0 ± 0.4.

And the “arterial patency score (0-3)” value ([4]; DDA 30 mg/kg, 90-120 min after rt-PA)?
Its value is 1.6 ± 0.5.

What about the “arterial patency score (0-3)” value ([4]; DDA 30 mg/kg, 120-150 min after rt-PA) of the same compound?
The value was 1.1 ± 0.5.

And the “arterial patency score (0-3)” value ([4]; DDA 30 mg/kg, 150-180 min after rt-PA)?
The value was 1.4 ± 0.5.

What about the “Incidence of Re-occlusion” value [4, 7] of the same compound?
Its value is 1/7.

And the “Platelet Count (Post rt-PA)” value [4, 7]?
The value was 363 ± 66.

And the Time to thrombolysis [4, 7]?
The Time to thrombolysis was 24.0 ± 6.0 min.

What about the “reduction in thrombus weights compared to 0.9% NaCl solution” value ([4]; DDA 50 mg/kg i.v.) of the same compound?
The value was 42±5%.

What about the “arterial patency score (0-3)” value ([4]; DDA 50 mg/kg, 0-30 min after rt-PA) of the same compound?
Its value is 1.9 ± 0.3.

And the “arterial patency score (0-3)” value ([4]; DDA 50 mg/kg, 30-60 min after rt-PA)?
Its value is 2.4 ± 0.3.

And the “arterial patency score (0-3)” value ([4]; DDA 50 mg/kg, 60-90 min after rt-PA)?
The value was 2.3 ± 0.4.

What about the “arterial patency score (0-3)” value ([4]; DDA 50 mg/kg, 90-120 min after rt-PA) of the same compound?
Its value is 2.3 ± 0.5.

What about the “arterial patency score (0-3)” value ([4]; DDA 50 mg/kg, 120-150 min after rt-PA) of the same compound?
The value was 2.3 ± 0.4.

And the “arterial patency score (0-3)” value ([4]; DDA 50 mg/kg, 150-180 min after rt-PA)?
Its value is 2.3 ± 0.5.

What about the “time to clot lysis compared with 0.9% NaCl-treated animals” value ([4]; DDA 10, 30 or 50 mg/kg followed by rt-PA) of the same compound?
Its value is “similar”.

And the “whole blood platelet counts” value ([4]; dog, in vivo)?
The value was “unaffected”.

What about the “vessel patency score during the protocol” value ([4]; intermediate and highest doses of DDA (30 and 50 mg/kg)) of the same compound?
Its value is “progressive improvement”.

From patent publication US8063101B2, “Carotenoid analogs and derivatives for the prevention of platelet aggregation” (Cardax Pharmaceuticals, Inc., priority 2007, dated 2011)
